Measured values from patent US20050209278A1, “Piperidinyl- and piperazinyl-sulfonylmethyl hydroxamic acids and their use as protease inhibitors” (priority 2002, published 2005).
Where two headings read alike, the source gives them in different places.

Experiments:
MMP-14 = target: T1, MMP-14 (Homo sapiens, UniProt P50281); assay: In vitro MMP inhibition, Ki determination (fluorogenic substrate II); type: biochemical; conditions: read-out: MMP-14 Ki
T1 construct: The catalytic domain enzyme was expressed in E. coli inclusion bodies, solubilized in urea; made in house
Outline: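 E. coli-expressed, refolded MMP-14 catalytic domain, activated with APMA or trypsin, in 100 mM Tris-HCl pH 7.5, 100 mM NaCl, 10 mM CaCl2, 0.05% Brij-type detergent. Apparent Ki by Morrison-equation regression of velocity vs inhibitor and enzyme concentration.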

MMP-13 = target: T2, MMP-13 (Homo sapiens, UniProt P45452); assay: as above; type: biochemical; conditions: read-out: MMP-13 Ki
T2 construct: made in house; host or cells: baculovirus / insect cells
Outline: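 Ki determined with human recombinant MMP-13, baculovirus-expressed as proenzyme and activated with APMA. Fluorogenic MCA/Dpa substrate II at 4 μM (at or below Km) with low enzyme in Tris buffer pH 7.5 with CaCl2. Incubation was 1 h at room temperature, with fluorescence read at 330/420 nm.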

| Ki (MMP-14; value not in parenthesis) | Ki (MMP-13; value not in parenthesis) | Ki (MMP-14; value outside parentheses) | Ki (MMP-13; value outside parentheses) | SMILES |
| --- | --- | --- | --- | --- |
| – | – | 5000 nM | 0.46 nM | C#CCN1CCC(C(=O)NO)(S(=O)(=O)N2CCN(c3ccc(OCCCC)cc3)CC2)CC1 [Example 303] |
| – | – | 1040 nM | 4.26 nM | O=C(NO)C1(S(=O)(=O)N2CCC(c3ccc(-c4ccc(F)cc4F)cn3)CC2)CCOCC1 [Example 308] |
| 1180 nM | 0.84 nM | – | – | O=C(NO)C1(S(=O)(=O)N2CCN(c3ccc(CCC(F)(F)F)cc3)CC2)CCOCC1 [Example 77] |
| – | – | > 10000 nM | 2.06 nM | CCCCOc1ccc(N2CCN(S(=O)(=O)C3(C(=O)NO)CCN(Cc4ccccc4)CC3)CC2)cc1F [Example 285] |
| – | – | 1440 nM | 0.355 nM | COCCN1CCC(C(=O)NO)(S(=O)(=O)N2CCC(c3ccc(CCC(F)(F)F)cc3)CC2)CC1 [Example 309] |
| – | – | 4270 nM | 0.32 nM | CC(C)CCOc1ccc(N2CCN(S(=O)(=O)C3(C(=O)NO)CCOCC3)CC2)cc1 [Example 279] |
| – | – | 5180 nM | 0.373 nM | CCCCOc1ccc(N2CCN(S(=O)(=O)C3(C(=O)NO)CCN(Cc4ccco4)CC3)CC2)cc1 [Example 252] |
| – | – | 549 nM | 0.19 nM | CCCCOc1ccc(N2CCN(S(=O)(=O)C3(C(=O)NO)CCN(c4ccc(O)nn4)CC3)CC2)cc1 [Example 283] |
| 1510 nM | 0.25 nM | – | – | CCCCOc1ccc(N2CCN(S(=O)(=O)C3(C(=O)NO)Cc4ccccc4C3)CC2)nc1 [Example 85] |
| – | – | 31.7 nM | 0.863 nM | O=C(NO)C1(S(=O)(=O)N2CCC(c3ccc(Br)cn3)CC2)CCOCC1 [Example 306] |
| – | – | 1200 nM | 0.25 nM | CCCCOc1ccc(N2CCN(S(=O)(=O)C3(C(=O)NO)CCN(C=O)CC3)CC2)cc1 [Example 269] |
| > 10000 nM | 0.43 nM | – | – | CCN1CCC(C(=O)NO)(S(=O)(=O)N2CCN(c3ccc(OCCCC(F)(F)F)cc3)CC2)CC1 [Example 78] |
| 2800 nM | 0.17 nM | – | – | O=C(NO)C1(S(=O)(=O)N2CCN(c3ccc(OCCCCF)cc3)CC2)CCOCC1 [Example 89] |
| – | – | 645 nM | 0.136 nM | CCCCCc1ccc(C2CCN(S(=O)(=O)C3(C(=O)NO)CCOCC3)CC2)nc1 [Example 305] |
| – | – | 5660 nM | 0.39 nM | CCCCOc1ccc(N2CCN(S(=O)(=O)C3(C(=O)NO)CCN(C(=O)c4ccccc4)CC3)CC2)cc1 [Example 255] |
| 4550 nM | 0.39 nM | – | – | CCCCOc1ccc(N2CCN(S(=O)(=O)C3(C(=O)NO)CCOCC3)CC2)c(F)c1 [Example 90] |

The remaining lines, values behind:

| SMILES | Ki (MMP-14; value not in parenthesis) | Ki (MMP-13; value not in parenthesis) | Ki (MMP-14; value outside parentheses) | Ki (MMP-13; value outside parentheses) |
| --- | --- | --- | --- | --- |
| CCCCOc1ccc(N2CCN(S(=O)(=O)C3(C(=O)NO)CCN(C(=O)OCC(C)(C)C)CC3)CC2)cc1 [Example 97] | > 10000 nM | 21.9 nM | – | – |
| CCCCOc1ccc(N2CCN(S(=O)(=O)C3(C(=O)NO)CCN(C(=O)COC)CC3)CC2)cc1 [Example 268] | – | – | 1390 nM | 0.311 nM |
| CCCCCc1ccc(N2CCN(S(=O)(=O)C3(C(=O)NO)CCN(c4ncccn4)CC3)CC2)nc1 [Example 95] | 597 nM | 0.68 nM | – | – |
| C#CCOC(=O)N1CCC(C(=O)NO)(S(=O)(=O)N2CCN(c3ccc(OCCCC)cc3)CC2)CC1 [Example 98] | 1620 nM | 0.38 nM | – | – |
| CCCCc1ccc(C2CCN(S(=O)(=O)C3(C(=O)NO)CCN(CCOC)CC3)CC2)s1 [Example 55] | 2450 nM | 3.94 nM | – | – |
| CCCCOc1ccc(N2CCN(S(=O)(=O)C3(C(=O)NO)CCN(C(=O)C(C)(C)C)CC3)CC2)cc1 [Example 267] | – | – | > 10000 nM | 0.64 nM |
| CCCCOc1ccc(N2CCN(S(=O)(=O)C3(C(=O)NO)CCN(C(=O)CN)CC3)CC2)cc1 [Example 292] | – | – | 6540 nM | 0.98 nM |
| CCCCOc1ccc(N2CCN(S(=O)(=O)C3(C(=O)NO)CCN(c4ccc(Cl)c(Cl)c4)CC3)CC2)cc1 [Example 250] | > 10000 nM | 18.4 nM | – | – |
| CCCCOc1ccc(N2CCN(S(=O)(=O)C3(C(=O)NO)CCN(CCOC)CC3)CC2)c(F)c1 [Example 284] | – | – | 2770 nM | 0.12 nM |
| CCCCOc1ccc(N2CCN(S(=O)(=O)C3(C(=O)NO)CCN(C(=O)CC(F)(F)F)CC3)CC2)cc1 [Example 265] | – | – | 3790 nM | 0.637 nM |
| CCCCc1ccc(C2CCN(S(=O)(=O)C3(C(=O)NO)CCOCC3)CC2)nc1 [Example 307] | – | – | 1290 nM | 0.654 nM |
| CCCCOc1ccc(N2CCN(S(=O)(=O)C3(C(=O)NO)CCOCC3)CC2)nc1 [Example 100] | 411 nM | 0.06 nM | – | – |
| CCCCOc1ccc(N2CCN(S(=O)(=O)C3(C(=O)NO)CCN(C(C)(C)C)CC3)CC2)c(F)c1 [Example 84] | > 10000 nM | 1.91 nM | – | – |
| O=C(NO)C1(S(=O)(=O)N2CCN(c3ccc(C(F)(F)F)cn3)CC2)CCOCC1 [Example 94] | 221 nM | 0.82 nM | – | – |
| O=C(NO)C1(S(=O)(=O)N2CCN(c3ccc(OCCCC(F)(F)F)cc3F)CC2)CCOCC1 [Example 81] | 2430 nM | 0.261 nM | – | – |
| CCCCOc1ccc(N2CCN(S(=O)(=O)C3(C(=O)NO)CCN(Cc4cccnc4)CC3)CC2)cc1F [Example 293] | – | – | 5440 nM | 0.313 nM |
| CCCCOc1ccc(N2CCN(S(=O)(=O)C3(C(=O)NO)CCN(C(=O)C(C)C)CC3)CC2)cc1 [Example 273] | – | – | 5090 nM | 0.313 nM |
